“And” between values parts separate entries of the source, which are not always exact repeats. Equal entries are not always repeated.
Key:
[1] = DPPH radical scavenging capacity
Description: Different concentrations of H. cinereum extract were prepared in methanol and aliquots of 100 μL were added to 3.5 mL of DPPH (Sigma-Aldrich, Steinheim, Germany) solution (30 μg/g in methanol). A blank consisting of DPPH solution without extract was prepared. All samples were kept in darkness for 15 min. Then, the absorbance was measured against a blank (Methanol) at 515 nm in a UV-Vis spectrophotometer (UV 1700, Shimadzu, Japan). The DPPH solution was daily prepared and the concentration was checked using a calibration curve obtained by preparation of serial concentrations (4, 8, 16, 32 and 64 μg/g). […] The obtained IC50 value is inversely proportional to the antioxidant activity.

[2] = design: method as in doi:10.3390/app7040400; settings: cited from earlier work
IL-5 = system: IL-5; design: method as in PMID 10418337; settings: from Kummerowia striata; cited from earlier work
A375 melanoma cell line = assay: Cell viability by MTT assay, A375; type: cell-based; settings: for concentrations giving significant decrease in cell viability: 72 h
Description: (§1) The immortalized human keratinocytes HaCaT cells were obtained from Cell Lines Services (Eppelheim, Germany). The A549 cell lines were acquired from the European Collection of Authenticated Cell Cultures (ECACC) and supplied by Sigma-Aldrich (St. Louis, MO, USA), the A375 cell lines were acquired from ATCC and supplied by LGC Standards (Barcelona, Spain), and Mia PaCa-2 and Panc-1 cell lines were kindly provided by Dr. Sónia Melo […], Porto, Portugal). […] Cells were cultured at 5% CO2 and at 37 °C. A stock solution was made by dissolving trans-tiliroside or luteolin 4'-O-β-xyloside in dimethyl sulfoxide (DMSO, Sigma-Aldrich, St. Louis, MO, USA). All cell lines were seeded in 96-well plates at a density of 12,500 cells/mL and incubated for 24 h for adhesion. […] After the exposure, cell viability was assessed by 3-(4,5-dimethyl-2-thiazolyl)-2,5-diphenyl-2H-tetrazolium bromide (MTT, Sigma-Aldrich, St. Louis, MO, USA) assay. Briefly, the exposure medium was replaced by fresh medium and 50 μL of MTT (1.0 mg/mL dissolved in phosphate-buffered saline, PBS, PAN-Biotech, Aidenbach, Germany) and plates were incubated for 3 h. Then, the medium was removed and 150 μL of DMSO was added and plates were shaken in the dark for 1 h. The absorbance was read in a microplate reader BioTek Synergy HT plate reader at 570 nm. Cells with only medium without compounds were used as control. Three independent assays were completed with three replicates each. Cell viability was further calculated using the Equation (3):(3) Cell Viability % of control=Sample Absorbance-Blank Absorbance/Control Absorbance-Blank Absorbance×100

[3] = system: Mia PaCa-2 pancreatic cancer cell line; assay: Cell viability by MTT assay, Mia PaCa-2; type: cell-based; settings: Mia PaCa-2, MTT; for IC50: Homo sapiens, 72 h exposure
Description: as §1

[4] = ABTS radical scavenging assay
Description: The ABTS radical scavenging activity of H. cinereum extracts was assessed according to the method described by. Firstly, 1 mL of ABTS (Sigma-Aldrich, Steinheim, Germany) stock solution (7 mM) was mixed with 88 μL of potassium persulfate solution (140 mM) and kept overnight protected from light and at room temperature. Next, the mixture was diluted with potassium buffer saline (0.2 M, pH 7.4) to obtain an ABTS solution with an absorbance of 0.70 ± 0.02 at 734 nm. […] The reaction took place in the dark for 6 min, and the absorbance at 734 nm was measured. Samples containing the same volume of methanol and the same dilution of ascorbic acid served as white and positive controls, respectively. […] A2 is the solvent and sample mixture absorbance and A0 is the absorbance of the solvent and ABTS radical mixture.

[5] = system: pancreatic cancer cell lines; design: method as in PMID 26527884; settings: cited from earlier work
A549 cell line = system: A549 cell line; design: method as in PMID 20589534, PMID 29393891; settings: cited from earlier work
[6] = system: immortalized human keratinocytes HaCaT; assay: Cell viability by MTT assay, HaCaT; type: cell-based; settings: 72 h exposure
Description: as §1, with “Then, the medium was removed and 150 μL of DMSO was added and plates were shaken in the dark for 1 h.” left out, “Cells with only medium without compounds were used as control. Three independent assays were completed with three replicates each.” left out

Panc-1 cells [7] = system: Panc-1 cells; design: method as in PMID 38412575; settings: 72 h of exposure; read-out: IC50 growth of Panc-1 cells; cited from earlier work
[8] = system: B16-F10 cells, melanoma cell line; design: method as in earlier work; settings: 168 μM, 72 h; ref 41 (Lu et al. 2009); cited from earlier work
HaCaT cells = assay: Cell cycle analysis by flow cytometry, HaCaT; type: cell-based, human; settings: IC50 concentration (122 μM), 72 h
Description: (§2) Cells were seeded in 12-well plates as described before. […] Then, cells were collected, washed with PBS, fixed with 85% ethanol and stored at −20 °C until analysis. For analysis, cells were washed, resuspended in PBS and filtered to Eppendorf tubes. Samples were incubated with 50 μL of RNAse (Sigma-Aldrich, St. Louis, MO, USA) for 10 min and next with 50 μL of propidium iodide (PI, ≥94%; Sigma-Aldrich, St. Louis, MO, USA) for 20 min. Cells were analyzed with an Attune® Acoustic Focusing Cytometer (Applied Biosystems, Termo Fischer Scientific, Agawam, MA, USA) and the percentages of cells at each phase of the cell cycle were determined using the FlowJo software V10.7.1 (FlowJo LLC, Ashland, OR, USA). Two independent assays with two replicates each were performed, with at least 5000 events.

A549 cells = assay: Cell cycle analysis by flow cytometry, A549; type: cell-based; settings: A549, IC50 concentration (108 μM), 72 h
Description: as §2

Panc-1 cells [9] = assay: Cell cycle analysis by flow cytometry, Panc-1; type: cell-based; settings: Panc-1, IC50 concentration (54 μM), 72 h
Description: as §2

A375 cells = assay: Cell cycle analysis by flow cytometry, A375; type: cell-based; settings: A375, IC50 concentration (102 μM), 72 h
Description: as §2

Mia PaCa-2 cells = assay: Cell cycle analysis by flow cytometry, Mia PaCa-2; type: cell-based; settings: Mia PaCa-2, IC50 concentration (46.2 μM), 72 h
Description: as §2

[10] = system: A549 lung cancer cell line; assay: Cell viability by MTT assay, A549; type: cell-based
Description: as §1, with “Then, the medium was removed and 150 μL of DMSO was added and plates were shaken in the dark for 1 h.” left out, “Cells with only medium without compounds were used as control. Three independent assays were completed with three replicates each.” left out

[11] = system: Panc-1 pancreatic cancer cell line; assay: Cell viability by MTT assay, Panc-1; type: cell-based; settings: Panc-1, MTT
Description: as §1, with “Then, the medium was removed and 150 μL of DMSO was added and plates were shaken in the dark for 1 h.” left out, “Cells with only medium without compounds were used as control. Three independent assays were completed with three replicates each.” left out

Question: Which “DPPH (IC50)” value [1] does the source give for `O=C1O[C@H]([C@@H](O)CO)C(O)=C1O` [Ascorbic acid] here?
Answer: 3.36 ± 0.13 µg/g

Question: For `COc1cc2c(=O)oc3c(OC)c(OS(=O)(=O)O)cc4c(=O)oc(c1OC)c2c34` [Compound 12, 3,3′,4′-tri-O-methyl-ellagic acid 4-sulfate], which cytotoxic effect [2] is on record?
Answer: cytotoxic effect

Question: Which IL-5 inhibition (IL-5) does the source give for `O=c1cc(-c2ccc(OC3OC(CO)C(O)C(O)C3O)c(O)c2)oc2cc(O)cc(O)c12` (stereo not drawn) [Luteolin 4′-O-glucoside, luteolin 4′-O-β-glucoside] here?
Answer: IL-5 inhibitor

Question: What does the source list for `O=c1cc(-c2ccc(OC3OCC(O)C(O)C3O)c(O)c2)oc2cc(O)cc(O)c12` (stereo not drawn) [Luteolin 4′-O-β-xyloside, luteolin 4′-O-β-xyloside]?
Answer: concentrations giving significant decrease in cell viability (A375 melanoma cell line): up to 75 μM; IC50 [3]: 229 ± 9.09 µM

Question: For `Cc1c(C)c2c(c(C)c1O)CCC(C)(C(=O)O)O2` (centres unmarked) [Trolox], which DPPH (IC50) [1] is on record?
Answer: 12 ± 0.41 µg/mL

Question: What about the ABTS (IC50) [4] of the same compound?
Answer: 23.2 ± 0.54 µg/mL

Question: What does the source list for `O=c1cc(-c2ccc(O)c(O)c2)oc2cc(O)cc(O)c12` [luteolin aglycone, luteolin]?
Answer: concentrations strongly affecting pancreatic cancer cell lines [5]: above 160 μM; IC50 (A549 cell line): 32.6 µM and 40 µM

Question: What does the source list for `O=C(/C=C/c1ccc(O)cc1)OC[C@H]1O[C@@H](Oc2c(-c3ccc(O)cc3)oc3cc(O)cc(O)c3c2=O)[C@H](O)[C@@H](O)[C@@H]1O` [trans-tiliroside, kaempferol-3-O-[6″-O-(E)-p-coumaroyl]-β-D-glucoside]?
Answer: IC50 [6]: 122 ± 1.8 µM; IC50 (Panc-1 cells [7]): 68.5 µM; decline in the viability of B16-F10 cells [8]: 80%; effect on cell cycle dynamics (HaCaT cells): no alterations on the cell cycle dynamics; effect on cell cycle dynamics (A549 cells): no alterations on the cell cycle dynamics; effect on cell cycle dynamics (Panc-1 cells [9]): no alterations on the cell cycle dynamics; effect on cell cycle dynamics (A375 cells): no alterations on the cell cycle dynamics; concentrations giving significant decrease in cell viability (A375 melanoma cell line): ≥ 75 µM; IC50 (A375 melanoma cell line; Homo sapiens, A-375, 72 h exposure): 102 ± 2.56 µM; increase of cells at G2/M phase compared to the control (Mia PaCa-2 cells): 3.9%; increase of cells at the S phase compared to the control (Mia PaCa-2 cells): 5.6%; IC50 [3]: 46.2 ± 0.89 µM; concentrations affecting cell viability ([3]; 72 h): ≥ 50 µM; concentrations giving significant decrease in cell viability ([10]; 72 h): ≥ 75 µM; IC50 ([10]; Homo sapiens, 72 h exposure): 108 ± 2.8 µM; IC50 ([11]; Homo sapiens, 72 h exposure): 54 ± 1.95 µM; concentration causing decline of cell viability ([11]; 72 h): 10 µM
